Laboratory results as given in patent publication US10624895B2, “Methods of sensitizing a patient with glioma to a therapeutic agent by administering small hairpin RNA targeting PDZ-RHOGEF” (THE TRANSLATIONAL GENOMICS RESEARCH INSTITUTE, priority 2016, dated 2020).

Experiments:
Assay type in all cases: cell-based, human
[1] = tested on: EGFR; assay: Western blot of EGFR expression after PPF treatment; settings: T98G, GBM10, GBM43 cells, 5 μM PPF, 24 hours
Experimental: FIG. 24A—a Western blot analysis of TROY expression in T98G cells. Cells were treated with PPF at indicated concentrations for 6 hrs, lysed, and cell lysates immunoblotted with anti-TROY antibody. Immunoblotting of α-Tubulin in cell lysates is included as a loading control. FIG. 24B—Western blot analysis of TROY expression in T98G, GBM43, and GBM10 cells. Cells were treated with PPF at indicated concentrations for 24 hrs, lysed, and cell lysates immunoblotted with anti-TROY and α-Tubulin antibodies. FIG. 24C—Western Blot analysis of TROY expression in GBM10 and GBM43 primary glioma cells. Cells were treated with 5 μM PPF, lysed at the indicated time-points, and the lysates immunoblotted with an anti-TROY antibody. Immunoblotting of β-Actin in cell lysates is included as a loading control. FIG. […]—Western Blot analysis of T98G, GBM10 and GBM43 glioma cells treated with 5 μM PPF for 24 hours. […]
Referring now to FIGS. 24A, 24B, 24C, and 24D: The inventors investigated if PPF could be utilized pharmacologically to decrease TROY expression in GBM cells. […] Cells were treated with increasing concentration of PPF, 1 to 20 μM lysed, and TROY expression assessed by immunobloting. […] Protein concentrations were determined using the BCA Assay (Pierce). […] Protein bands were detected using SuperSignal® Chemiluminescent Substrate (Pierce) with a UVP BioSpectrum 500 Imaging System.

[2] = tested on: T98G, GBM10, and GBM43 cells; assay: CellTiterGlo cytotoxicity assay; settings: 0.5 to 20 μM PPF, 72 hours
Experimental: FIG. 25A—T98G, GBM43, and GBM10 cells were incubated with increasing concentrations of PPF (0, 5, 50, and 500 After 0, 48, 96 and 144 hours of treatment, cell were trypsinized and counted using an automated cell counter. FIG. 25B—GBM43, GBM10, and T98G glioma cells were treated with increasing doses of PPF (0.5, 1, 5, 10, and 20 μM) in triplicate. The CellTiterGlo® (Promega) reagent was used to measure survival. Raw values were normalized on a plate-by-plate basis such that 100% cell viability was equivalent to the mean of vehicle wells and 0% cell viability was equivalent to the mean of the MG132 positive control. The normalized data was used to assess viability of glioma cells after PPF treatment.
Referring now to FIGS. 25A and 25B: To determine if PPF influences glioma cell proliferation, the inventors treated T98G, GBM10, and GBM43 cells with increasing concentrations of PPF and evaluated cell proliferation over the course of 144 hours. Briefly, 1.25×10^5 cells were seeded (n=3) in 12-well plates in 1 mL of DMEM supplemented with 10% FBS and allowed to attach at 37° C. for 16 hrs. […] After 0, 48, 96 and 144 hours of treatment, the cells were trypsinized and counted using the automated cell counter. […] Subsequently, 100 μL of CellTiterGlo® reagent was added to each well and luminescence was measured using Envision Reader. […]

[3] = tested on: T98G and GBM43 cells; assay: Clonogenic survival assay, PPF with TMZ or radiation
Experimental: FIGS. 26A, 26B, and 26C depict that PPF sensitizes GBM cells to TMZ and radiotherapy. FIG. 26A—A clonogenic assay was used to assess T98G and GBM43 cells survival after TMZ and radiation treatment. Cells were pre-treated with 5 μM PPF for 24 hours, and then either treated with 250 μM TMZ for 24 hours or exposed to 2 Gy radiation. Graph depicts the surviving fraction in the treated cells compared to vehicle (VC) treated or non-treated (NT) cells, **p<0.01. FIG. 26B—T98G glioma cells were treated with vehicle, PPF (5 μM) TMZ (250 μM) and PPF in combination with TMZ. TMZ-induced apoptosis was assayed by immunoblot analysis of cell lysates with an antibody to cleaved PARP. Immunoblotting for α-Tubulin was included as a loading control. FIG. 26C—T98G, GBM10, and GBM43 cells were treated with PPF ([…], and then immunoblotted to assess the activation of AKT and NF-κB. Immunoblotting for β-Actin is included as a loading control.
Referring now to FIGS. 26A, 26B, and 26C: Knockdown of TROY expression with shRNA decreases TMZ resistance in GBM cells in vitro (See Reference 42). […] Following combination therapy, cells were trypsinized, counted, and plated in a 6-well culture dish at densities of 100, 250, and 500 cells per well in triplicate. Cells were incubated for 12 days then fixed, stained with 0.5% crystal violet solution, and counted manually by blinded observers. […]

Compound: CCCn1cnc2c1c(=O)n(CCCCC(C)=O)c(=O)n2C [PPF, 3-methyl-1-(5-oxohexyl)-7-propyl-3,7-dihydro-1H-purine-2,6-dione]
- EGFR expression [1]: did not affect the expression
- cell viability [2]: negligible loss of cell viability
- surviving fraction ([3]; 5 μM PPF 24 hours then 250 μM TMZ 24 hours, compared to TMZ alone, T98G and GBM43): significantly decreased the surviving fraction
- surviving fraction ([3]; 5 μM PPF 24 hours then 2Gy radiation, compared to 2Gy radiation alone): significantly decreased the surviving fraction
